Experimental data from patent publication US10906873B2, “Substituted cyclic amides as herbicides” (FMC Corporation, priority 2015, dated 2021).

System: galium (catchweed bedstraw, Galium aparine)
Assay: Test A postemergence, galium
Assay type: in vivo
Settings: 125 g ai/ha, 0 to 100 scale
Excerpt: (§1) Seeds of plant species selected from barnyardgrass (Echinochloa crus-galli), crabgrass (large crabgrass, Digitaria sanguinalis), kochia (Kochia scoparia), ragweed (common ragweed, Ambrosia elatior), morningglory (Ipomoea spp.), velvetleaf (Abutilon theophrasti), ryegrass, It. (Italian ryegrass, Lolium multiflorum), foxtail, giant (giant foxtail, Setaria faberii), wheat (Triticum aestivum), corn (Zea mays), and pigweed (Amaranthus retroflexus), were planted into a blend of loam soil and sand and treated preemergence with a directed soil spray using test chemicals formulated in a non-phytotoxic solvent mixture which included a surfactant. At the same time, plants selected from these crop and weed species and also blackgrass (Alopecurus myosuroides), and galium (catchweed bedstraw, Galium aparine), were planted in pots containing the same blend of loam soil and sand and treated with postemergence applications of test chemicals formulated in the same manner. Plants ranged in height from 2 to 10 cm and were in the one- to two-leaf stage for the postemergence treatment. Treated plants and untreated controls were maintained in a greenhouse for approximately 10 d, after which time all treated plants were compared to untreated controls and visually evaluated for injury. Plant response ratings, summarized in Table A, are based on a 0 to 100 scale where 0 is no effect and 100 is complete control. A dash (-) response means no test result.

**Q.** How did the “Plant response rating, Galium” value turn out when `O=C1NCC(Cc2cccc(F)c2F)C1C(=O)Nc1cccc(F)c1F` (stereo not drawn) [Compound 8] was run?
**A.** 0

Same assay, conditions: 500 g ai/ha, 0 to 100 scale

**Q.** `O=C1NCC(Cc2cccc(F)c2F)C1C(=O)Nc1cccc(F)c1F` (stereo not drawn) [Compound 8] was tested. Which “Plant response rating, Galium” value did it give?
**A.** 0

System: kochia (Kochia scoparia)
Assay: Test A preemergence, kochia
Assay type: in vivo
Settings: 125 g ai/ha, 0 to 100 scale
Excerpt: as §1

**Q.** With `O=C1NCC(Cc2cccc(F)c2F)C1C(=O)Nc1cccc(F)c1F` (stereo not drawn) [Compound 8] as the compound, how does the “Plant response rating, Kochia” value read?
**A.** 0

Same assay, conditions: 500 g ai/ha, 0 to 100 scale

**Q.** `O=C1NCC(Cc2cccc(F)c2F)C1C(=O)Nc1cccc(F)c1F` (stereo not drawn) [Compound 8] was tested. Which “Plant response rating, Kochia” value did it give?
**A.** 0

System: ragweed (common ragweed, Ambrosia elatior)
Assay: Test A postemergence, ragweed
Assay type: in vivo
Settings: 125 g ai/ha, 0 to 100 scale
Excerpt: as §1

**Q.** For `O=C1NCC(Cc2cccc(F)c2F)C1C(=O)Nc1cccc(F)c1F` (stereo not drawn) [Compound 8], which “Plant response rating, Ragweed” value is on record?
**A.** 0

Same assay, conditions: 500 g ai/ha, 0 to 100 scale

**Q.** For `O=C1NCC(Cc2cccc(F)c2F)C1C(=O)Nc1cccc(F)c1F` (stereo not drawn) [Compound 8], which “Plant response rating, Ragweed” value is on record?
**A.** 0

System: ragweed (common ragweed, Ambrosia elatior)
Assay: Test A preemergence, ragweed
Assay type: in vivo
Settings: 125 g ai/ha, 0 to 100 scale
Excerpt: as §1

**Q.** For `O=C1NCC(Cc2cccc(F)c2F)C1C(=O)Nc1cccc(F)c1F` (stereo not drawn) [Compound 8], which “Plant response rating, Ragweed” value is on record?
**A.** 0

Same assay, conditions: 500 g ai/ha, 0 to 100 scale

**Q.** Which “Plant response rating, Ragweed” value does the source give for `O=C1NCC(Cc2cccc(F)c2F)C1C(=O)Nc1cccc(F)c1F` (stereo not drawn) [Compound 8] here?
**A.** 0

System: barnyardgrass (Echinochloa crus-galli)
Assay: Test B flooded paddy test, barnyardgrass
Assay type: in vivo
Settings: Flood, 500 g ai/ha; scale of 0 to 100 where 0 is no effect and 100 is complete control; 13 to 15 d
Method: (§2) Plant species in the flooded paddy test selected from rice (Oryza sativa), sedge, umbrella (small-flower umbrella sedge, Cyperus difformis), ducksalad (Heteranthera limosa), and barnyardgrass (Echinochloa crus-galli) were grown to the 2-leaf stage for testing. At time of treatment, test pots were flooded to 3 cm above the soil surface, treated by application of test compounds directly to the paddy water, and then maintained at that water depth for the duration of the test. Treated plants and controls were maintained in a greenhouse for 13 to 15 d, after which time all species were compared to controls and visually evaluated. Plant response ratings, summarized in Table B, are based on a scale of 0 to 100 where 0 is no effect and 100 is complete control. A dash (-) response means no test result.

**Q.** How did the “Plant response rating, Barnyardgrass” value turn out when `O=C1NCC(Cc2cccc(F)c2F)C1C(=O)Nc1cccc(F)c1F` (stereo not drawn) [Compound 8] was run?
**A.** 0

System: pigweed (Amaranthus retroflexus)
Assay: Test A preemergence, pigweed
Assay type: in vivo
Settings: 125 g ai/ha, 0 to 100 scale
Excerpt: as §1

**Q.** With `O=C1NCC(Cc2cccc(F)c2F)C1C(=O)Nc1cccc(F)c1F` (stereo not drawn) [Compound 8] as the compound, how does the “Plant response rating, Pigweed” value read?
**A.** 0

Same assay, conditions: 500 g ai/ha, 0 to 100 scale

**Q.** How did the “Plant response rating, Pigweed” value turn out when `O=C1NCC(Cc2cccc(F)c2F)C1C(=O)Nc1cccc(F)c1F` (stereo not drawn) [Compound 8] was run?
**A.** 0

System: rice (Oryza sativa)
Assay: Test B flooded paddy test, rice
Assay type: in vivo
Settings: Flood, 500 g ai/ha; scale of 0 to 100 where 0 is no effect and 100 is complete control; 13 to 15 d
Method: as §2

**Q.** For `O=C1NCC(Cc2cccc(F)c2F)C1C(=O)Nc1cccc(F)c1F` (stereo not drawn) [Compound 8], which “Plant response rating, Rice” value is on record?
**A.** 0

System: ryegrass, It. (Italian ryegrass, Lolium multiflorum)
Assay: Test A postemergence, ryegrass, It.
Assay type: in vivo
Settings: 125 g ai/ha, 0 to 100 scale
Excerpt: as §1

**Q.** How did the “Plant response rating, Ryegrass, It.” value turn out when `O=C1NCC(Cc2cccc(F)c2F)C1C(=O)Nc1cccc(F)c1F` (stereo not drawn) [Compound 8] was run?
**A.** 0

Same assay, conditions: 500 g ai/ha, 0 to 100 scale

**Q.** How did the “Plant response rating, Ryegrass, It.” value turn out when `O=C1NCC(Cc2cccc(F)c2F)C1C(=O)Nc1cccc(F)c1F` (stereo not drawn) [Compound 8] was run?
**A.** 0

System: barnyardgrass (Echinochloa crus-galli)
Assay: Test A postemergence, barnyardgrass
Assay type: in vivo
Settings: 125 g ai/ha, 0 to 100 scale
Excerpt: as §1

**Q.** `O=C1NCC(Cc2cccc(F)c2F)C1C(=O)Nc1cccc(F)c1F` (stereo not drawn) [Compound 8] was tested. Which “Plant response rating, Barnyardgrass” value did it give?
**A.** 0

Same assay, conditions: 500 g ai/ha, 0 to 100 scale

**Q.** With `O=C1NCC(Cc2cccc(F)c2F)C1C(=O)Nc1cccc(F)c1F` (stereo not drawn) [Compound 8] as the compound, how does the “Plant response rating, Barnyardgrass” value read?
**A.** 0

System: pigweed (Amaranthus retroflexus)
Assay: Test A postemergence, pigweed
Assay type: in vivo
Settings: 125 g ai/ha, 0 to 100 scale
Excerpt: as §1

**Q.** How did the “Plant response rating, Pigweed” value turn out when `O=C1NCC(Cc2cccc(F)c2F)C1C(=O)Nc1cccc(F)c1F` (stereo not drawn) [Compound 8] was run?
**A.** 0

Same assay, conditions: 500 g ai/ha, 0 to 100 scale

**Q.** `O=C1NCC(Cc2cccc(F)c2F)C1C(=O)Nc1cccc(F)c1F` (stereo not drawn) [Compound 8] was tested. Which “Plant response rating, Pigweed” value did it give?
**A.** 0

System: corn (Zea mays)
Assay: Test A postemergence, corn
Assay type: in vivo
Settings: 125 g ai/ha, 0 to 100 scale
Excerpt: as §1

**Q.** With `O=C1NCC(Cc2cccc(F)c2F)C1C(=O)Nc1cccc(F)c1F` (stereo not drawn) [Compound 8] as the compound, how does the “Plant response rating, Corn” value read?
**A.** 0

Same assay, conditions: 500 g ai/ha, 0 to 100 scale

**Q.** `O=C1NCC(Cc2cccc(F)c2F)C1C(=O)Nc1cccc(F)c1F` (stereo not drawn) [Compound 8] was tested. Which “Plant response rating, Corn” value did it give?
**A.** 0

System: barnyardgrass (Echinochloa crus-galli)
Assay: Test A preemergence, barnyardgrass
Assay type: in vivo
Settings: 125 g ai/ha, 0 to 100 scale
Excerpt: as §1

**Q.** `O=C1NCC(Cc2cccc(F)c2F)C1C(=O)Nc1cccc(F)c1F` (stereo not drawn) [Compound 8] was tested. Which “Plant response rating, Barnyardgrass” value did it give?
**A.** 0

Same assay, conditions: 500 g ai/ha, 0 to 100 scale

**Q.** `O=C1NCC(Cc2cccc(F)c2F)C1C(=O)Nc1cccc(F)c1F` (stereo not drawn) [Compound 8] was tested. Which “Plant response rating, Barnyardgrass” value did it give?
**A.** 0

System: wheat (Triticum aestivum)
Assay: Test A postemergence, wheat
Assay type: in vivo
Settings: 125 g ai/ha, 0 to 100 scale
Excerpt: as §1

**Q.** With `O=C1NCC(Cc2cccc(F)c2F)C1C(=O)Nc1cccc(F)c1F` (stereo not drawn) [Compound 8] as the compound, how does the “Plant response rating, Wheat” value read?
**A.** 0

Same assay, conditions: 500 g ai/ha, 0 to 100 scale

**Q.** `O=C1NCC(Cc2cccc(F)c2F)C1C(=O)Nc1cccc(F)c1F` (stereo not drawn) [Compound 8] was tested. Which “Plant response rating, Wheat” value did it give?
**A.** 0

System: ducksalad (Heteranthera limosa)
Assay: Test B flooded paddy test, ducksalad
Assay type: in vivo
Settings: Flood, 500 g ai/ha; scale of 0 to 100 where 0 is no effect and 100 is complete control; 13 to 15 d
Method: as §2

**Q.** Which “Plant response rating, Ducksalad” value does the source give for `O=C1NCC(Cc2cccc(F)c2F)C1C(=O)Nc1cccc(F)c1F` (stereo not drawn) [Compound 8] here?
**A.** 0

System: blackgrass (Alopecurus myosuroides)
Assay: Test A postemergence, blackgrass
Assay type: in vivo
Settings: 125 g ai/ha, 0 to 100 scale
Excerpt: as §1

**Q.** Which “Plant response rating, Blackgrass” value does the source give for `O=C1NCC(Cc2cccc(F)c2F)C1C(=O)Nc1cccc(F)c1F` (stereo not drawn) [Compound 8] here?
**A.** 0

Same assay, conditions: 500 g ai/ha, 0 to 100 scale

**Q.** Which “Plant response rating, Blackgrass” value does the source give for `O=C1NCC(Cc2cccc(F)c2F)C1C(=O)Nc1cccc(F)c1F` (stereo not drawn) [Compound 8] here?
**A.** 0

System: foxtail, giant (giant foxtail, Setaria faberii)
Assay: Test A postemergence, foxtail, giant
Assay type: in vivo
Settings: 125 g ai/ha, 0 to 100 scale
Excerpt: as §1

**Q.** Which “Plant response rating, Foxtail, Giant” value does the source give for `O=C1NCC(Cc2cccc(F)c2F)C1C(=O)Nc1cccc(F)c1F` (stereo not drawn) [Compound 8] here?
**A.** 0

Same assay, conditions: 500 g ai/ha, 0 to 100 scale

**Q.** Which “Plant response rating, Foxtail, Giant” value does the source give for `O=C1NCC(Cc2cccc(F)c2F)C1C(=O)Nc1cccc(F)c1F` (stereo not drawn) [Compound 8] here?
**A.** 0

System: ryegrass, It. (Italian ryegrass, Lolium multiflorum)
Assay: Test A preemergence, ryegrass, It.
Assay type: in vivo
Settings: 125 g ai/ha, 0 to 100 scale
Excerpt: as §1

**Q.** With `O=C1NCC(Cc2cccc(F)c2F)C1C(=O)Nc1cccc(F)c1F` (stereo not drawn) [Compound 8] as the compound, how does the “Plant response rating, Ryegrass, It.” value read?
**A.** 0

Same assay, conditions: 500 g ai/ha, 0 to 100 scale

**Q.** With `O=C1NCC(Cc2cccc(F)c2F)C1C(=O)Nc1cccc(F)c1F` (stereo not drawn) [Compound 8] as the compound, how does the “Plant response rating, Ryegrass, It.” value read?
**A.** 0

System: sedge, umbrella (small-flower umbrella sedge, Cyperus difformis)
Assay: Test B flooded paddy test, sedge, umbrella
Assay type: in vivo
Settings: Flood, 500 g ai/ha; scale of 0 to 100 where 0 is no effect and 100 is complete control; 13 to 15 d
Method: as §2

**Q.** For `O=C1NCC(Cc2cccc(F)c2F)C1C(=O)Nc1cccc(F)c1F` (stereo not drawn) [Compound 8], which “Plant response rating, Sedge, Umbrella” value is on record?
**A.** 0

System: kochia (Kochia scoparia)
Assay: Test A postemergence, kochia
Assay type: in vivo
Settings: 125 g ai/ha, 0 to 100 scale
Excerpt: as §1

**Q.** Which “Plant response rating, Kochia” value does the source give for `O=C1NCC(Cc2cccc(F)c2F)C1C(=O)Nc1cccc(F)c1F` (stereo not drawn) [Compound 8] here?
**A.** 0

Same assay, conditions: 500 g ai/ha, 0 to 100 scale

**Q.** With `O=C1NCC(Cc2cccc(F)c2F)C1C(=O)Nc1cccc(F)c1F` (stereo not drawn) [Compound 8] as the compound, how does the “Plant response rating, Kochia” value read?
**A.** 0

System: foxtail, giant (giant foxtail, Setaria faberii)
Assay: Test A preemergence, foxtail, giant
Assay type: in vivo
Settings: 125 g ai/ha, 0 to 100 scale
Excerpt: as §1

**Q.** How did the “Plant response rating, Foxtail, Giant” value turn out when `O=C1NCC(Cc2cccc(F)c2F)C1C(=O)Nc1cccc(F)c1F` (stereo not drawn) [Compound 8] was run?
**A.** 0

Same assay, conditions: 500 g ai/ha, 0 to 100 scale

**Q.** With `O=C1NCC(Cc2cccc(F)c2F)C1C(=O)Nc1cccc(F)c1F` (stereo not drawn) [Compound 8] as the compound, how does the “Plant response rating, Foxtail, Giant” value read?
**A.** 50
